Measured values from the kinase profiling compilation of Christmann-Franck et al. (2016).

Columns and labels:
Test in all cases: radiometric filter-binding kinase assay, Kinase HotSpot
Details in all cases: compound 0.5 µM; ATP 10 µM
[1] = molecular target: ACVR1B (human) (UniProt P36896)
[2] = molecular target: ADRBK1 (human) (UniProt P25098)
[3] = molecular target: BRSK1 (human) (UniProt Q8TDC3)
[4] = molecular target: CAMK1 (human) (UniProt Q14012)
[5] = molecular target: CDC42BPA (human) (UniProt Q5VT25)
[6] = molecular target: CDK2 CCNA2 (human) (UniProt P24941+P20248)
[7] = molecular target: CDK6 CCND1 (human) (UniProt Q00534+P24385)
[8] = molecular target: CLK3 (human) (UniProt P49761)
[9] = molecular target: CSNK1G2 (human) (UniProt P78368)
[10] = molecular target: DMPK (human) (UniProt Q09013)
[11] = molecular target: DSTYK (human) (UniProt Q6XUX3)
[12] = molecular target: DYRK3 (human) (UniProt O43781)
[13] = molecular target: ERBB4 (human) (UniProt Q15303)
Sequence of ERBB4 (human) (Q15303 whole entry, looked up): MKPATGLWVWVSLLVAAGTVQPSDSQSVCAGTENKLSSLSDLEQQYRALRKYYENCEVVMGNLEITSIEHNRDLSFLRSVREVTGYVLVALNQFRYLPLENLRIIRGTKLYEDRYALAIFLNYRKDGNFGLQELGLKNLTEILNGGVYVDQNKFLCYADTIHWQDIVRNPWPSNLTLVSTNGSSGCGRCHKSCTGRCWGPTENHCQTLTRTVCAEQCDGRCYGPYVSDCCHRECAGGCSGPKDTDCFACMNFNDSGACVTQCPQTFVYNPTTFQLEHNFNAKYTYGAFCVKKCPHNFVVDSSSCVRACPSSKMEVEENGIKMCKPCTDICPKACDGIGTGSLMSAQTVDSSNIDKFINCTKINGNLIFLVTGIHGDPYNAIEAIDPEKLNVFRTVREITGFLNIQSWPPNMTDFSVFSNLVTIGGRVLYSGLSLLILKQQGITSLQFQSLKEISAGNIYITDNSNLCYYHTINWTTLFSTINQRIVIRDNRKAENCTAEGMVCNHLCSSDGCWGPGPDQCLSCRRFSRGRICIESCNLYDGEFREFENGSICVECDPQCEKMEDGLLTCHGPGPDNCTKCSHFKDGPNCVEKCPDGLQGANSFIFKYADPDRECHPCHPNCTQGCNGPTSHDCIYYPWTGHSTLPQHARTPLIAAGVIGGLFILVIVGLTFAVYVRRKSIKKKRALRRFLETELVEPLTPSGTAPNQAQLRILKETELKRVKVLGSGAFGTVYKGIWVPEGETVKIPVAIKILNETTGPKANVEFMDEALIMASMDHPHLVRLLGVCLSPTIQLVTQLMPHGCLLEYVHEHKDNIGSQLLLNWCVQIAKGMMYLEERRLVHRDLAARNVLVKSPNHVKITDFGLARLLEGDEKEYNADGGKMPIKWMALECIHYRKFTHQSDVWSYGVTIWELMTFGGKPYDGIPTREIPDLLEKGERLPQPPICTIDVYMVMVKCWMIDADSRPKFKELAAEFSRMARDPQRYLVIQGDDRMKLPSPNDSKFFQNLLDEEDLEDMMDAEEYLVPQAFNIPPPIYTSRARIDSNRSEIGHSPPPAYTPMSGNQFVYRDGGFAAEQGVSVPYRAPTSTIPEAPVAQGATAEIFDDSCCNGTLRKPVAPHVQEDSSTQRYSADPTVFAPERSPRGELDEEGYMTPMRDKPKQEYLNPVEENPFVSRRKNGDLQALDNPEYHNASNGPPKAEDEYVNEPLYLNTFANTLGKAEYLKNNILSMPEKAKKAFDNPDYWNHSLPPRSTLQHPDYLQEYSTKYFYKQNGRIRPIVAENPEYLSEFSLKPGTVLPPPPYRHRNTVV

[14] = molecular target: FGFR2 (human) (UniProt P21802)
[15] = molecular target: FYN (human) (UniProt P06241)
Sequence of FYN (human) (P06241 whole entry, looked up): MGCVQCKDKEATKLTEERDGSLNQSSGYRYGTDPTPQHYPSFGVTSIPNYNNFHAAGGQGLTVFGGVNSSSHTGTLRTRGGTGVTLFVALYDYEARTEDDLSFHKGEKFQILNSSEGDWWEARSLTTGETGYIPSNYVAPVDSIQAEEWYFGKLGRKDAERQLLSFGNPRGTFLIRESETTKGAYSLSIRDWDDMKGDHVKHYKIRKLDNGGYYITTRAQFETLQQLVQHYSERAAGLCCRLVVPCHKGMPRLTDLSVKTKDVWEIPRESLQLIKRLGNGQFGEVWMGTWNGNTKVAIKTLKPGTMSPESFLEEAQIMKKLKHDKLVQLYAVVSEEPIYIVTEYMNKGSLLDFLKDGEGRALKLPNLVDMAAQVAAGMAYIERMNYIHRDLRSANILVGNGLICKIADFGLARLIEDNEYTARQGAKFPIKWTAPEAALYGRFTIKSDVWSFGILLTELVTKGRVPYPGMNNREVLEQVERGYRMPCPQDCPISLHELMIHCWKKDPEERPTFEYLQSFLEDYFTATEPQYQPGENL

[16] = molecular target: GSK3B (human) (UniProt P49841)
[17] = molecular target: IRAK1 (human) (UniProt P51617)
Sequence of IRAK1 (human) (P51617 whole entry, looked up): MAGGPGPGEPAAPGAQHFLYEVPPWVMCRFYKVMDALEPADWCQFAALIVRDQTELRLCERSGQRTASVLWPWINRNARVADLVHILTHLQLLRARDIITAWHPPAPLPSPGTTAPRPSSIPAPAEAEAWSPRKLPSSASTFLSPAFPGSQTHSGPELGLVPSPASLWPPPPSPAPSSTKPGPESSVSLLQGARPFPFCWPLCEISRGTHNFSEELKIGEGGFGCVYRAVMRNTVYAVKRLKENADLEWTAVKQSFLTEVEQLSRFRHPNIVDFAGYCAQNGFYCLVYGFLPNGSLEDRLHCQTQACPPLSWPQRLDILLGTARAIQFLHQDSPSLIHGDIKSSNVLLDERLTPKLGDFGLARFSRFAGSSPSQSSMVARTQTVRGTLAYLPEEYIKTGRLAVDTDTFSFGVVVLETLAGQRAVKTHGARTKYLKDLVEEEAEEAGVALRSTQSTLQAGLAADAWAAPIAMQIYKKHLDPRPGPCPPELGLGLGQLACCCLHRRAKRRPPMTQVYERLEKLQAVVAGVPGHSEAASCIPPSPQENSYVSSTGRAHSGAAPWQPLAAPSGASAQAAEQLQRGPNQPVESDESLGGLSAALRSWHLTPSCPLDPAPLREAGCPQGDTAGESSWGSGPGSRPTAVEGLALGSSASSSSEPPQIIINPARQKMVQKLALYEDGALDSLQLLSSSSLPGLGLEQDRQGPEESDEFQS

[18] = molecular target: KIT (human) (UniProt P10721)
[19] = molecular target: LRRK2 (human) (UniProt Q5S007)
[20] = molecular target: MAP3K3 (human) (UniProt Q99759)
[21] = molecular target: MAPK14 (human) (UniProt Q16539)
Sequence of MAPK14 (human) (Q16539 whole entry, looked up): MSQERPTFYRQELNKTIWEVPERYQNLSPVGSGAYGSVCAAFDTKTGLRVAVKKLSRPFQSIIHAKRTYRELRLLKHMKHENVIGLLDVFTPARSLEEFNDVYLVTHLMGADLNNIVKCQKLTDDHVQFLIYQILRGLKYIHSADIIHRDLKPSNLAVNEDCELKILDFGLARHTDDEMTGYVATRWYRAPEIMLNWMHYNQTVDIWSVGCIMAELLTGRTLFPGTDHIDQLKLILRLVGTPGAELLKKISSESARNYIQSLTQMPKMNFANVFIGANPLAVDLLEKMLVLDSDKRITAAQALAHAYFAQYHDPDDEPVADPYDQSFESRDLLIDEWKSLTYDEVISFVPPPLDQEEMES

[22] = molecular target: MST1R (human) (UniProt Q04912)
[23] = molecular target: NEK1 (human) (UniProt Q96PY6)
[24] = molecular target: NEK2 (human) (UniProt P51955)
[25] = molecular target: NLK (human) (UniProt Q9UBE8)
Sequence of NLK (human) (Q9UBE8 whole entry, looked up): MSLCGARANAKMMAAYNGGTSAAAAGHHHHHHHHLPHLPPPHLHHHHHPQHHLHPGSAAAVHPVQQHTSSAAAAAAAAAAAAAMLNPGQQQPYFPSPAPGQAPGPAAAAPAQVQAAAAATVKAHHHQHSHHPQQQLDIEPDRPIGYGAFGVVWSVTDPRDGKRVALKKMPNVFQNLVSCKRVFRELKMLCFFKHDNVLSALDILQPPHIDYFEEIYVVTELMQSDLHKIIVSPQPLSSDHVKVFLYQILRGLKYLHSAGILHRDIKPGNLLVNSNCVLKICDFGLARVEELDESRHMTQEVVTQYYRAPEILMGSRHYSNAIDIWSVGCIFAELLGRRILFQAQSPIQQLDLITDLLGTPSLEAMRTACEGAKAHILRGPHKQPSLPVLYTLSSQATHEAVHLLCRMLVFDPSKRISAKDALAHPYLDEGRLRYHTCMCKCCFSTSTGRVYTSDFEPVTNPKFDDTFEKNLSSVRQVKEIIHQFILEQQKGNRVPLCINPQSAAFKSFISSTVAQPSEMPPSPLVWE

[26] = molecular target: PAK3 (human) (UniProt O75914)
[27] = molecular target: PBK (human) (UniProt Q96KB5)
[28] = molecular target: PIM2 (human) (UniProt Q9P1W9)
Sequence of PIM2 (human) (Q9P1W9 whole entry, looked up): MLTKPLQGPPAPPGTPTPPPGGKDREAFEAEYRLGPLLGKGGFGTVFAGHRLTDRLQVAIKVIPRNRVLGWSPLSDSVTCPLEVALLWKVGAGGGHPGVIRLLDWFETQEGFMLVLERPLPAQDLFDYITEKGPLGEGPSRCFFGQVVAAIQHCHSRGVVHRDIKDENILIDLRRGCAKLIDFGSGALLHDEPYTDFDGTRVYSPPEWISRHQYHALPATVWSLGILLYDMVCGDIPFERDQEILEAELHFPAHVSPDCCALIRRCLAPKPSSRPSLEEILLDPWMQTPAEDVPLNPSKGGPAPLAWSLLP

[29] = molecular target: PLK2 (human) (UniProt Q9NYY3)
Sequence of PLK2 (human) (Q9NYY3 whole entry, looked up): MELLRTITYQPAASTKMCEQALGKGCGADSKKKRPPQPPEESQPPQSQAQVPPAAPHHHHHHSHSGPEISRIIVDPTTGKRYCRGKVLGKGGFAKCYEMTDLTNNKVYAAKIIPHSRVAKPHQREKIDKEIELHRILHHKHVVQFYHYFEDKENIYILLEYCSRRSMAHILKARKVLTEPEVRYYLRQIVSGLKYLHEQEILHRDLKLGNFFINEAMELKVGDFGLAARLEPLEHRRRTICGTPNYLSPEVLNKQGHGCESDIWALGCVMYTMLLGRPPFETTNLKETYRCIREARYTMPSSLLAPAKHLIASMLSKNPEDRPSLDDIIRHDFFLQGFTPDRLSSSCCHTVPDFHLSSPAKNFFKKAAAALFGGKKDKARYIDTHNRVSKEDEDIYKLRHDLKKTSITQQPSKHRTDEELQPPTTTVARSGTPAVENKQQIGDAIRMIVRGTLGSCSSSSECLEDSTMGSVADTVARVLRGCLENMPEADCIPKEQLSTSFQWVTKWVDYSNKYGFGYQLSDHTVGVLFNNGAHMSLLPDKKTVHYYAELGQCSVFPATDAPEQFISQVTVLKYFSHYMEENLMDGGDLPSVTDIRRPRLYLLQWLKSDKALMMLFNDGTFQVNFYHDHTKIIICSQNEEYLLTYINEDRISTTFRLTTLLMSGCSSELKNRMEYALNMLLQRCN

[30] = molecular target: PRKCB1 (human) (UniProt P05771)
[31] = molecular target: PRKCH (human) (UniProt P24723)
[32] = molecular target: PRKCZ (human) (UniProt Q05513)
Sequence of PRKCZ (human) (Q05513 whole entry, looked up): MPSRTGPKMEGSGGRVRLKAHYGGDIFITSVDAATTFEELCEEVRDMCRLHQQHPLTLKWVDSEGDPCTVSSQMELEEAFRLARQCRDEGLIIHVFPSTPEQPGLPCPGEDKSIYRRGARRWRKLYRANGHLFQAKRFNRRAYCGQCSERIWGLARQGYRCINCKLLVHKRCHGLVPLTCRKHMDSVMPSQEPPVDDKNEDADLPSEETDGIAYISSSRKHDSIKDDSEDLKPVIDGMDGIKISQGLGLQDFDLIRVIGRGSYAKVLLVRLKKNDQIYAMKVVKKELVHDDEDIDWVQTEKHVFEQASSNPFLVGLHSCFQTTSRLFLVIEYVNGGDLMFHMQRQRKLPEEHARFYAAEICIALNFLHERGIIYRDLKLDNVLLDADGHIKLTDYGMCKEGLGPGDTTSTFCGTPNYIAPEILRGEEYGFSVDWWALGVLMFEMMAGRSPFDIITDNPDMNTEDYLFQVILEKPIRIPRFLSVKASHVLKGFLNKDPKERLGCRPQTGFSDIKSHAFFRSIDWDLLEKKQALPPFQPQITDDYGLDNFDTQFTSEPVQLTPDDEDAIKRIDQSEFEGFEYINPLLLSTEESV

[33] = molecular target: PRKD2 (human) (UniProt Q9BZL6)
[34] = molecular target: RET (human) (UniProt P07949)
[35] = molecular target: ROCK1 (human) (UniProt Q13464)
[36] = molecular target: RPS6KA6 KD1 KD2 (human) (UniProt Q9UK32)
[37] = molecular target: SGK3 (human) (UniProt Q96BR1)
[38] = molecular target: STK11 (human) (UniProt Q15831)
[39] = molecular target: STK25 (human) (UniProt O00506)
[40] = molecular target: STK33 (human) (UniProt Q9BYT3)
[41] = molecular target: TGFBR1 (human) (UniProt P36897)
[42] = molecular target: PIM1 (human) (UniProt P11309)

CCN(CC)CCCCN1c2ccccc2Oc2ccc(Cl)cc21
residual activity [1]: 105%
residual activity [2]: 96.5%
residual activity [3]: 98.3%
residual activity [4]: 101%
residual activity [5]: 111%
residual activity [6]: 98.7%
residual activity [7]: 98%
residual activity [8]: 104%
residual activity [9]: 103%
residual activity [10]: 99.2%
residual activity [11]: 106%
residual activity [12]: 99%
residual activity [13]: 102%
residual activity [14]: 95.7%
residual activity [15]: 107%
residual activity [16]: 113%
residual activity [17]: 118%
residual activity [18]: 107%
residual activity [19]: 115%
residual activity [20]: 103%
residual activity [21]: 95.8%
residual activity [22]: 112%
residual activity [23]: 101%
residual activity [24]: 101%
residual activity [25]: 101%
residual activity [26]: 116%
residual activity [27]: 105%
residual activity [28]: 109%
residual activity [29]: 103%
residual activity [30]: 101%
residual activity [31]: 108%
residual activity [32]: 105%
residual activity [33]: 105%
residual activity [34]: 96.3%
residual activity [35]: 92.6%
residual activity [36]: 109%
residual activity [37]: 101%
residual activity [38]: 94.4%
residual activity [39]: 92.6%
residual activity [40]: 89.9%
residual activity [41]: 97.2%

Cn1sc(=O)n(Cc2ccccc2)c1=O
residual activity [1]: 103%
residual activity [2]: 96.7%
residual activity [3]: 102%
residual activity [4]: 100%
residual activity [5]: 94%
residual activity [6]: 100%
residual activity [7]: 106%
residual activity [8]: 83%
residual activity [9]: 95%
residual activity [10]: 100%
residual activity [11]: 92.9%
residual activity [12]: 108%
residual activity [13]: 104%
residual activity [15]: 105%
residual activity [16]: 114%
residual activity [17]: 116%
residual activity [18]: 101%
residual activity [19]: 91.9%
residual activity [20]: 94.2%
residual activity [21]: 101%
residual activity [22]: 101%
residual activity [23]: 102%
residual activity [24]: 99.7%
residual activity [25]: 105%
residual activity [26]: 100%
residual activity [27]: 107%
residual activity [42]: 93%
residual activity [28]: 107%
residual activity [29]: 106%
residual activity [30]: 110%
residual activity [31]: 89%
residual activity [32]: 101%
residual activity [33]: 95.1%
residual activity [34]: 106%
residual activity [35]: 94.6%
residual activity [36]: 104%
residual activity [37]: 102%
residual activity [38]: 106%
residual activity [39]: 96.2%
residual activity [40]: 101%
residual activity [41]: 97.2%

CCn1cnc2c(Nc3cccc(Cl)c3)nc(N[C@@H]3CCCC[C@@H]3N)nc21
residual activity [1]: 110%
residual activity [2]: 96.5%
residual activity [3]: 92.4%
residual activity [4]: 103%
residual activity [5]: 93.4%
residual activity [6]: 23.6%
residual activity [7]: 60.9%
residual activity [8]: 99.8%
residual activity [9]: 69.5%
residual activity [10]: 99.7%
residual activity [11]: 97.8%
residual activity [12]: 83.7%
residual activity [13]: 103%
residual activity [15]: 48.6%
residual activity [16]: 104%
residual activity [17]: 81.7%
residual activity [18]: 101%
residual activity [19]: 70%
residual activity [20]: 103%
residual activity [21]: 100%
residual activity [22]: 99.6%
residual activity [23]: 95%
residual activity [24]: 100%
residual activity [25]: 90.8%
residual activity [26]: 91.9%
residual activity [27]: 105%
residual activity [42]: 83.8%
residual activity [28]: 111%
residual activity [29]: 95.8%
residual activity [30]: 106%
residual activity [31]: 77.6%
residual activity [32]: 106%
residual activity [34]: 69.3%
residual activity [35]: 96.5%
residual activity [36]: 75.7%
residual activity [37]: 94.3%
residual activity [38]: 78%
residual activity [39]: 101%
residual activity [40]: 88.9%
residual activity [41]: 95.6%

COc1cc2ncc(-c3ccccc3)nc2cc1OC
residual activity [1]: 95.2%
residual activity [2]: 95.8%
residual activity [3]: 102%
residual activity [4]: 90.4%
residual activity [5]: 85.4%
residual activity [6]: 92.9%
residual activity [7]: 94.1%
residual activity [8]: 90.1%
residual activity [9]: 84%
residual activity [10]: 103%
residual activity [11]: 82.7%
residual activity [12]: 95.4%
residual activity [13]: 65.9%
residual activity [14]: 103%
residual activity [15]: 100%
residual activity [16]: 113%
residual activity [17]: 98.4%
residual activity [18]: 67.3%
residual activity [19]: 84.9%
residual activity [20]: 90.3%
residual activity [21]: 122%
residual activity [22]: 84.2%
residual activity [23]: 95.9%
residual activity [24]: 85.3%
residual activity [25]: 89.3%
residual activity [26]: 94.7%
residual activity [27]: 85.5%
residual activity [42]: 95.9%
residual activity [28]: 101%
residual activity [30]: 105%
residual activity [31]: 107%
residual activity [32]: 96.3%
residual activity [33]: 93.8%
residual activity [34]: 84.4%
residual activity [35]: 95.5%
residual activity [36]: 98.5%
residual activity [37]: 89.7%
residual activity [38]: 86.8%
residual activity [39]: 90.7%
residual activity [40]: 91.7%
residual activity [41]: 101%

O=C1NC(=O)C(c2cn(CCCO)c3ncccc23)=C1c1cnccn1
residual activity [1]: 100%
residual activity [2]: 114%
residual activity [3]: 89.2%
residual activity [4]: 101%
residual activity [5]: 78.6%
residual activity [6]: 94.8%
residual activity [7]: 83.4%
residual activity [8]: 67.8%
residual activity [9]: 66%
residual activity [10]: 99.6%
residual activity [11]: 78%
residual activity [12]: 79.6%
residual activity [13]: 115%
residual activity [14]: 103%
residual activity [15]: 107%
residual activity [16]: 25.2%
residual activity [17]: 76.6%
residual activity [18]: 93%
residual activity [19]: 90%
residual activity [20]: 88.3%
residual activity [21]: 107%
residual activity [22]: 96.1%
residual activity [23]: 91.9%
residual activity [24]: 97.5%
residual activity [25]: 91.2%
residual activity [26]: 92.9%
residual activity [27]: 94.9%
residual activity [42]: 43.9%
residual activity [28]: 92.7%
residual activity [29]: 104%
residual activity [31]: 81.6%
residual activity [32]: 88.5%
residual activity [33]: 118%
residual activity [34]: 54.5%
residual activity [35]: 90.2%
residual activity [36]: 73%
residual activity [37]: 124%
residual activity [38]: 83.1%
residual activity [39]: 78.9%
residual activity [40]: 82.8%
residual activity [41]: 98.5%
